Laboratory results published in patent publication US11111259B2, “Acylsulfonamide derivatives for treating senescence-associated diseases and disorders” (Unity Biotechnology, Inc., priority 2015, dated 2021).

Tests used:
BCL-2 = BCL-2 (Homo sapiens, UniProt P10415); experiment: BCL-binding assay (AlphaLISA competition, BIM peptide); conditions: 6xHis BCL-2 with biotinylated BIM peptide, 24 hr incubation
How it was run: (§1)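 6xHis-tagged BCL-xL (0.4 nM stock-diluted) was paired with biotinylated BAD, and BCL-2 or BCL-w (0.8 nM) with biotinylated BIM, in 25 mM HEPES pH 7.5, 100 mM NaCl, 0.1% BSA, 0.005% Tween; compound competition for 24 hr at room temperature, then AlphaLISA anti-His acceptor and streptavidin donor bead read-out. Kd derived by one-site competitive binding model using known protein–peptide Kd values.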

BCL-w = biological target: T1, BCL-w (Homo sapiens, UniProt Q92843); experiment: as above; conditions: 6xHis BCL-w with biotinylated BIM peptide, 24 hr incubation
T1 sequence (Q92843 1-193): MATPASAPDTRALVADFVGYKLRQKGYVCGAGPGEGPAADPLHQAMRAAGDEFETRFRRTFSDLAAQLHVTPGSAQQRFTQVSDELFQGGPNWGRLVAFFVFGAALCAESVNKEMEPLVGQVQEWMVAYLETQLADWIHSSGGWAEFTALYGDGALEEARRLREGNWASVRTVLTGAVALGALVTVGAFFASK
How it was run: as §1

BCL-xL = BCL-xL (Homo sapiens, UniProt Q07817); experiment: BCL-binding assay (AlphaLISA competition, BAD peptide); conditions: 6xHis BCL-xL with biotinylated BAD peptide, 24 hr incubation
How it was run: as §1

[1] = system: IMR-90 SnC (irradiated senescent IMR90 cells); experiment: Senolysis assay (CellTiter-Glo viability); assay type: cell-based, human; conditions: Homo sapiens, IMR-90, light or radiation study, 72 h; X-ray irradiated senescent IMR90 cells, viability three days after compound addition
How it was run: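 X-irradiated (10-15 Gy) IMR90 cells held two weeks, alongside non-senescent IMR90 plated 4 or 1 day before, exposed to compound for three days. CellTiter-Glo viability relative to DMSO gave EC50; selectivity index = non-senescent EC50 / senescent EC50.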

Chain of BCL-2 (P10415 whole entry, species assumed): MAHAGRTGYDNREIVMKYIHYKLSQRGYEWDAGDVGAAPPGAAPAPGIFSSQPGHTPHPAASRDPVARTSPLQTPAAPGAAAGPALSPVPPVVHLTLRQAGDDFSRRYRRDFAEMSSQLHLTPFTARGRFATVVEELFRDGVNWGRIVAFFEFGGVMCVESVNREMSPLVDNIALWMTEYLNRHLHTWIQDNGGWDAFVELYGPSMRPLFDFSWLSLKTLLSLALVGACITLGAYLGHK
Chain of BCL-xL (Q07817 whole entry, species assumed): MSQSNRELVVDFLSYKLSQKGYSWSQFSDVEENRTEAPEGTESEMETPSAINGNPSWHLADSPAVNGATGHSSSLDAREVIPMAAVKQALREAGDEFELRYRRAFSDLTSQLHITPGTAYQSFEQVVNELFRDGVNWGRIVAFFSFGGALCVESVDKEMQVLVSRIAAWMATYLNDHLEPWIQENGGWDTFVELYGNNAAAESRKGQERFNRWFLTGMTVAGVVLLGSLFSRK

CCOP(=O)(CN1CCN(CC[C@H](CSc2ccccc2)Nc2ccc(S(=O)(=O)NC(=O)c3ccc(N4CCN(Cc5ccccc5-c5ccc(Cl)cc5)CC4)cc3)cc2S(=O)(=O)C(F)(F)F)CC1)OCOC(=O)OC(C)C (stereo partly drawn) [Compound 56, (((4-((R)-3-((4-(N-(4-(4-((4′-chloro-[1,1′-biphenyl]-2-yl)methyl)piperazin-1-yl)benzoyl)sulfamoyl)-2-((trifluoromethyl)sulfonyl)phenyl)amino)-4-(phenylthio)butyl)piperazin-1-yl)methyl)(ethoxy)phosphoryl)oxy)methyl isopropyl carbonate]
Kd (BCL-2): < 1 nM
Kd (BCL-w): 1 to 10 nM
Kd (BCL-xL): < 1 nM
EC50 [1]: > 10000 nM
